Patent US10358434B2, “2-(3-pyridinyl)-1H-benzimidazole derivative compound and medicament containing same” (NIHON MEDI-PHYSICS CO., LTD., priority 2014, dated 2019)

Tests used:
[1] = test system: human adrenal gland section expressing aldosterone-producing adenoma; assay: In vitro autoradiography using human adrenal adenoma; type: binding
From the text: From adrenal gland excised from a human patient for treatment of primary aldosteronism, a portion containing aldosterone-producing adenoma was removed and was then frozen. The frozen adrenal gland was embedded in an embedding agent for production of a frozen tissue section (Tissue-Tek O.C.T. Compound, Sakura Finetek Japan). Using a freezing microtome (CM3050S, Leica Microsystems), a 7-μm thin slice section, which is schematically shown in FIGS. 17(a) and 17(b), was produced, and was preserved at −20° C. before use. In FIGS. 17, 71a and 71b indicate aldosterone-producing adenomas, 72a and 72b indicate normal adrenal cortexes, and 73a and 73b indicate normal adrenal medullas. A 5-33 kBq/mL solution was prepared by adding a suitable amount of each of Compounds [^18F] 100, [^18F] 200, [^123I] 400, [^18F] 500, and [^123I] 601 to [^123I] 610, which were obtained by the methods described in Examples 2, 4, 7, 9, 11, 13, 15, 17, 19, 21, 23, 25, 27, and 29, or [^123I] IMTO to a phosphate-buffered physiological saline containing 1 w/v % bovine serum albumin (not containing fatty acid). The radioactivity concentration was measured using an autowell gamma system (ARC-7001, manufactured by Hitachi Aloka Medical, Ltd.). The section was immersed in the obtained sample solution for 10 minutes. For Compounds [^18F] 100, [^18F] 200, [^123I] 400, [^18F] 500, [^123I] 601 and [^123I] 602, the section shown in FIG. 17(a) was used, and for Compounds […] [^123I] IMTO, both sections shown in FIGS. 17(a) and (b) were used. Each sample solution was washed off, and the section was then exposed to an imaging plate (BAS-SR2040, manufactured by FUJIFILM Holdings Corporation) (IP) for 16-20 hours, and thereafter, an autoradiogram was obtained using a fluoro-image analyzer (FLA-7000, manufactured by FUJIFILM Holdings Corporation).
In order to quantitatively compare differences between images caused by ^123I and ^18F nuclides, a correction was made by calculating accumulation of radioactivity within the range of a region of interest (ROI) by means of integral calculation based on half-life, added radioactivity and IP contact time.
610. FIG. 18(b), FIG. 19(b), FIG. 20(b), FIG. 21(b), FIG. 22(a), FIG. 23(a), FIG. 24(a), FIG. 25(a), FIG. 26(a), FIG. 27(a), FIG. 28(a), FIG. 29(a), FIG. 30(a), and FIG. 31(a) each show an autoradiogram of [^123I] IMTO. […] 100, [^18F] 200, [^123I] 400, [^18F] 500, and [^123I] 601 to [^123I] […] The ROI having the same area as each other was established in a normal site and in a site in which aldosterone-producing adenoma had developed. Then, the PSL value (B1) indicating accumulation of radioactivity in the sites of normal adrenal cortexes 72a and 72b was compared with the PSL value (B2) indicating accumulation of radioactivity in the sites of aldosterone-producing adenomas 71a and 71b. In Table 7, the B1, B2 and B2/B1 values of [^18F] 100 indicate the mean values for the number of tests (n), respectively.

[2] = In vivo kinetics experiment (radioactivity distribution); set-up: species or system Wistar male rat; conditions: rat i.v., mean ± SD
Protocol: Each of Compounds [^18F] 100, [^18F] 200, [^123I] 400, [^18F] 500, and [^123I] 601 to 610 obtained by the methods described in Examples 2, 4, 7, 9, 11, 13, 15, 17, 19, 21, 23, 25, 27, and 29, or [^123I] IMTO, was diluted with a physiological saline containing 1 w/v % ascorbic acid to prepare a solution to be administered. The above described compound (approximately 1 to 3.7 MBq) was injected into the caudal vein of a Wistar male rat (9 weeks old) under anesthesia with a mixed gas of isoflurane/air, and ten minutes after the injection, the rat was sacrificed by exsanguination. From the thus sacrificed rat, blood and organs (heart, lung, stomach, liver, spleen, small intestine, large intestine, kidney, bladder (including urine), muscle (lower limbs), brain, adrenal gland, testis, fat, femur, or thyroid gland) were excised, and the weights thereof were then measured. Thereafter, radioactivity was measured in the blood, the individual excised organs, and the remaining whole body. Further, 30 and 60 minutes after the administration, the same operations as those described above were carried out. […] The symbol “n” in Tables 9 to 23 indicates the number of rats used. In addition, Tables 9 to 23 also show the ratio of radioactivity accumulation in adrenal grand (% ID/g) to radioactivity accumulation in each of blood, liver, kidney, small intestine, muscle and fat (% ID/g).

COC(=O)c1cncn1[C@H](C)c1ccc(I)cc1 [[^123I] IMTO, (R)-[^123I]iodometomidate, reference compound]
accumulation of radioactivity in adrenal gland section (autoradiogram) ([1]; FIGS. 18 to 31): accumulation of radioactivity was observed in the entire adrenal gland section
B2/B1 accumulation ratio ([1]; section of FIG. 17(a)): 0.84
B2 (PSL value, aldosterone-producing adenoma) ([1]; section of FIG. 17(a), site 71a): 7863
B1 (PSL value, normal adrenal cortex) ([1]; section of FIG. 17(a), site 72a): 9415
B2/B1 accumulation ratio ([1]; section of FIG. 17(b)): 0.79
B2 (PSL value, aldosterone-producing adenoma) ([1]; section of FIG. 17(b), site 71b): 6649
B1 (PSL value, normal adrenal cortex) ([1]; section of FIG. 17(b), site 72b): 8453
Adrenal gland/blood ratio of radioactivity accumulation ([2]; 10 min after administration): 15.93 ± 4.94
Adrenal gland/kidney ratio of radioactivity accumulation ([2]; 10 min after administration): 31.76 ± 10.16
Adrenal gland/liver ratio of radioactivity accumulation ([2]; 10 min after administration): 6.72 ± 2.00
Adrenal gland/muscle ratio of radioactivity accumulation ([2]; 10 min after administration): 126.18 ± 54.27
Adrenal gland/small intestine ratio of radioactivity accumulation ([2]; 10 min after administration): 35.65 ± 9.43
Radioactivity distribution Adrenal gland ([2]; 10 min after administration): 22.14 ± 6.98 % ID/g
Radioactivity distribution Bladder (including urine) ([2]; 10 min after administration): 0.25 ± 0.27 % ID/g
Radioactivity distribution Blood ([2]; 10 min after administration): 1.40 ± 0.13 % ID/g
Radioactivity distribution Heart ([2]; 10 min after administration): 0.48 ± 0.07 % ID/g
Radioactivity distribution Kidney ([2]; 10 min after administration): 0.70 ± 0.01 % ID/g
Radioactivity distribution Large intestine ([2]; 10 min after administration): 0.10 ± 0.02 % ID/g
Radioactivity distribution Liver ([2]; 10 min after administration): 3.29 ± 0.08 % ID/g
Radioactivity distribution Lung ([2]; 10 min after administration): 0.72 ± 0.05 % ID/g
Radioactivity distribution Muscle (lower limbs) ([2]; 10 min after administration): 0.18 ± 0.05 % ID/g
Radioactivity distribution Remaining whole body ([2]; 10 min after administration): 0.29 ± 0.00 % ID/g
Radioactivity distribution Small intestine ([2]; 10 min after administration): 0.62 ± 0.03 % ID/g
Radioactivity distribution Spleen ([2]; 10 min after administration): 0.30 ± 0.02 % ID/g
Radioactivity distribution Stomach ([2]; 10 min after administration): 0.52 ± 0.18 % ID/g
Radioactivity distribution Testis ([2]; 10 min after administration): 0.52 ± 0.08 % ID/g
Radioactivity distribution Thyroid gland ([2]; 10 min after administration): 1.30 ± 1.05 % ID/g
Radioactivity distribution Whole brain ([2]; 10 min after administration): 0.30 ± 0.02 % ID/g
Adrenal gland/blood ratio of radioactivity accumulation ([2]; 30 min after administration): 6.84 ± 2.49
Adrenal gland/kidney ratio of radioactivity accumulation ([2]; 30 min after administration): 16.66 ± 8.95
Adrenal gland/liver ratio of radioactivity accumulation ([2]; 30 min after administration): 9.74 ± 4.16
Adrenal gland/muscle ratio of radioactivity accumulation ([2]; 30 min after administration): 97.10 ± 32.37
Adrenal gland/small intestine ratio of radioactivity accumulation ([2]; 30 min after administration): 25.49 ± 8.31
Radioactivity distribution Adrenal gland ([2]; 30 min after administration): 17.66 ± 7.43 % ID/g
Radioactivity distribution Bladder (including urine) ([2]; 30 min after administration): 0.39 ± 0.08 % ID/g
Radioactivity distribution Blood ([2]; 30 min after administration): 2.55 ± 0.16 % ID/g
Radioactivity distribution Heart ([2]; 30 min after administration): 0.74 ± 0.03 % ID/g
Radioactivity distribution Kidney ([2]; 30 min after administration): 1.10 ± 0.12 % ID/g
Radioactivity distribution Large intestine ([2]; 30 min after administration): 0.12 ± 0.01 % ID/g
Radioactivity distribution Liver ([2]; 30 min after administration): 1.82 ± 0.04 % ID/g
Radioactivity distribution Lung ([2]; 30 min after administration): 0.90 ± 0.09 % ID/g
Radioactivity distribution Muscle (lower limbs) ([2]; 30 min after administration): 0.18 ± 0.02 % ID/g
Radioactivity distribution Remaining whole body ([2]; 30 min after administration): 0.31 ± 0.03 % ID/g
Radioactivity distribution Small intestine ([2]; 30 min after administration): 0.68 ± 0.06 % ID/g
Radioactivity distribution Spleen ([2]; 30 min after administration): 0.43 ± 0.04 % ID/g
Radioactivity distribution Stomach ([2]; 30 min after administration): 0.46 ± 0.11 % ID/g
Radioactivity distribution Testis ([2]; 30 min after administration): 0.32 ± 0.04 % ID/g
Radioactivity distribution Thyroid gland ([2]; 30 min after administration): 0.81 ± 0.16 % ID/g
Radioactivity distribution Whole brain ([2]; 30 min after administration): 0.18 ± 0.02 % ID/g
Adrenal gland/blood ratio of radioactivity accumulation ([2]; 60 min after administration): 6.73 ± 2.57
Adrenal gland/kidney ratio of radioactivity accumulation ([2]; 60 min after administration): 18.20 ± 8.58
Adrenal gland/liver ratio of radioactivity accumulation ([2]; 60 min after administration): 14.20 ± 5.28
Adrenal gland/muscle ratio of radioactivity accumulation ([2]; 60 min after administration): 120.14 ± 30.92
Adrenal gland/small intestine ratio of radioactivity accumulation ([2]; 60 min after administration): 24.59 ± 8.26
Radioactivity distribution Adrenal gland ([2]; 60 min after administration): 19.70 ± 8.14 % ID/g
Radioactivity distribution Bladder (including urine) ([2]; 60 min after administration): 0.68 ± 0.30 % ID/g
Radioactivity distribution Blood ([2]; 60 min after administration): 2.91 ± 0.09 % ID/g
Radioactivity distribution Heart ([2]; 60 min after administration): 0.77 ± 0.03 % ID/g
Radioactivity distribution Kidney ([2]; 60 min after administration): 1.10 ± 0.10 % ID/g
Radioactivity distribution Large intestine ([2]; 60 min after administration): 0.14 ± 0.02 % ID/g
Radioactivity distribution Liver ([2]; 60 min after administration): 1.37 ± 0.06 % ID/g
Radioactivity distribution Lung ([2]; 60 min after administration): 1.01 ± 0.03 % ID/g
Radioactivity distribution Muscle (lower limbs) ([2]; 60 min after administration): 0.16 ± 0.02 % ID/g
Radioactivity distribution Remaining whole body ([2]; 60 min after administration): 0.34 ± 0.01 % ID/g
Radioactivity distribution Small intestine ([2]; 60 min after administration): 0.79 ± 0.11 % ID/g
Radioactivity distribution Spleen ([2]; 60 min after administration): 0.39 ± 0.03 % ID/g
Radioactivity distribution Stomach ([2]; 60 min after administration): 0.41 ± 0.05 % ID/g
Radioactivity distribution Testis ([2]; 60 min after administration): 0.33 ± 0.02 % ID/g
Radioactivity distribution Thyroid gland ([2]; 60 min after administration): 1.29 ± 0.25 % ID/g
Radioactivity distribution Whole brain ([2]; 60 min after administration): 0.11 ± 0.00 % ID/g
